≈ marks a conversion by molar mass, not a printed value.
Legend:
[1] = test system: human hepatoma cell HepG2; assay: In vitro human hepatoma cell HepG2 inhibitory activity (MTT); format: cell-based; details: HepG2, 48 h; for IC50: Homo sapiens
Text: (§1) According to the progress in the studies on anticancer drugs using IMPDH as a target, the present invention measured inhibitory activities of the compounds of present invention against human hepatoma cell HepG2 and human lung adenocarcinoma cell A549, respectively, the measured results are shown in Table 5:
In Vitro Human Hepatoma Cell HepG2 Inhibitory Activity Measurement
Collect well growing tumor cells, prepare 6×10^4/ml cell suspension in RPMI-1640 or DMEM culture medium containing 10% FBS, seed in 96-well plates, 100 μl suspension each well, incubate at 37° C. under 5% CO2 atmosphere for 24 h, add the test solution (final concentration of drug: 0.625, 1.25, 2.5, 5.0, 10 μg/ml), for each concentration set three parallel holes, set positive control (cisplatin 10, 1, 0.1 μg/ml) and a blank control simultaneously. After culture for 48 h discard the supernatants, add into each well 10 μl MTT solution (5 mg/ml, prepared with RPMI-1640 medium), continue culturing for 4 It, add into each hole 100 μl acidified isopropanol cell lysate, culture overnight, measure absorbance (A) values with Bio-Tek MQX200 type microplate reader with the detection wavelength at 540 nm, and reference wavelength 450 nm. Calculate the inhibition rate as follows: inhibition rate=(Ablank−Asample)/Ablank control×100%. Use Graphpad Prism 5 statistical software to calculate IC50.

[2] = test system: human lung adenocarcinoma cell A549; assay: In vitro human lung adenocarcinoma cell A549 inhibitory activity (MTT); format: cell-based; details: A549, 48 h; for IC50: Homo sapiens
Text: as §1
In Vitro Human Lung Adenocarcinoma Cell A549 Inhibitory Activity Measurement
Cell lines: human lung adenocarcinoma cell A549. Collect well growing tumor cells, prepare cell suspension with Ham's F12 culture solution containing 10% fetal calf serum medium, seed the suspension in 96-well plates, each well 100 μl suspension at 5000 cells/well, incubate at 37° C., under 5% CO2 atmosphere, 24 h later, add 2×drug solution […], each concentration in three parallel holes, set the blank control simultaneously. After culture for 48 h, add 20 μl (5 mg/ml) MTT to each well, culture 4 h, discard the supernatants. Measure absorbance (A) values using Bio-Rad 680 microplate reader at a detection wavelength of 570 nm, the survival rate (%) is calculated as follows: AsampleAblank control×100%. Use statistical software Graphpad Prism5 to calculate IC50. After primary screening of all samples, adjust the concentration gradient of the samples with IC50<100 μg/ml to do additional screenings, which are carried out with two parallel determinations.

[3] = test system: Coxsackie virus type B3 (COX-B3); assay: Anti-Coxsackie virus type B3 (COX-B3) activity, CPE in Vero cells; format: cell-based; details: Reed-Muench
Procedure: (§2) With Vero (African green monkey kidney) cells as viral hosts, inhibitory effects of the compounds of present invention on the grades of pathological lesions by coxsackievirus B3 (COX-B3), B6 (COX-B6) viruses in Vero cells were determined. The measured results of viral inhibitory activity of the compounds are shown in Table 3 and Table 4; wherein RBV is the control drug ribavirin. The inhibitory activities of the measured compounds against coxsackievirus B3, B6 were stronger than the control.
(§3) Screening of Anti-B3, B6 Type Coxsackie Viruses (COX-B3, COX-B6) Activity of the Samples
(§4) Prepare stock solutions of COX-B3 (or COX-B6) virus strains as well as tested compounds in DMSO before use. Before tests, dilute the stock solution with culture solution into a certain concentration and then dilute 3 times to make a total of eight dilutions. Use ribavirin (RBV) as positive control. Test procedures are as follows: seed Vero cells into 96-well culture plates, infect with 10^−5 Coxsackie virus of B3 (or B6) type, 24 hours later; adsorb subsequently for 2 hours, then discard the virus solution, add in the sample compounds and the positive control according to the abovementioned dilutions, set cell control wells and virus control wells simultaneously. When the cytopathic effect (CPE) of cells in the virus control wells reach 4+, observe CPE of the cells in each group. Use Reed-Muench method to calculate 50% inhibitory concentration (IC50) of the sample compounds against coxsackie virus B3 (or B6) type.

[4] = test system: Coxsackie virus type B6 (COX-B6); assay: Anti-Coxsackie virus type B6 (COX-B6) activity, CPE in Vero cells; format: cell-based; details: Reed-Muench
Procedure: as §2, §3, §4

IMPDH = IMPDH inhibition activity (A340, IMP substrate, NAD); format: biochemical; details: compound at 10 μg/mL
Procedure: Measurement of IMPDH Inhibitor Activity
In 96-well plates, use IMP as the substrate and NAD, NADH as chromogenic agents to determine the activity of the compounds described in this invention as IMPDH inhibitor. Add 2 μl of each of the tested sample solution, 20 μl enzyme extract and 30 μl IMP into a sample well in the 96-well plates; 2 μl DMSO and 30 μl IMP solution into a control well; 2 μl DMSO and 20 μl IMPDH buffer instead of the enzyme extract and 30 μl IMP solution into a blank well. Keep plates at constant 37° C. for 15 min, measure absorbance values A340 (OD1) of the solutions in various wells; subsequently, add into each well with 50 μl NAD, keep at constant 37° C. for 50 min, then measure A340 (OD2) values. Calculate IMPDH inhibition rates of samples as follows: Inhibition (%)=[(OD2−OD1)control−(OD2−OD1)Sample]/[(OD2−OD1)control−(OD2−OD1)Blank]×100%.

IC50 [3]	IC50 [1]	IC50 [2]	IC50 [4]	Structure (SMILES)	HepG2 IC50 [1]	A549 IC50 [2]	inhibition rate (%) 10 μg/mL (IMPDH)
> 2.47 µg/mL	22.5 µg/mL (≈ 70.6 µM)	38.6 µg/mL (≈ 121 µM)	7.41 µg/mL (≈ 23.2 µM)	COc1cc(NCc2c[nH]c3ccccc23)ccc1-c1cnco1 [Compound 53, N-(1H-indol-3-ylmethyl)-3-methoxy-4-(oxazol-5-yl) aniline]			39.2%
1.88 µg/mL (≈ 6.54 µM)	42.1 µg/mL (≈ 147 µM)	31.9 µg/mL (≈ 111 µM)	3.25 µg/mL (≈ 11.3 µM)	COc1cc(NCc2cncs2)ccc1-c1cnco1 [Compound 55, N-(thiazol-5-ylmethyl)-3-methoxy-4-(oxazol-5-yl) aniline]			
0.64 µg/mL (≈ 2.06 µM)	36.2 µg/mL (≈ 117 µM)	29.4 µg/mL (≈ 94.8 µM)	1.06 µg/mL (≈ 3.42 µM)	COc1ccc(CNc2ccc(-c3cnco3)c(OC)c2)cc1 [Compound 61, N-(4-methoxybenzyl)-3-methoxy-4-(oxazol-5-yl) aniline]			73.7%
1.23 µg/mL (≈ 4.04 µM)			5.75 µg/mL (≈ 18.9 µM)	COc1cc(/N=C/C=C/c2ccccc2)ccc1-c1cnco1 [Compound 65, N-(phenylpropen-1-ylidene)-3-methoxy-4-(oxazol-5-yl)-aniline]			32.0%
2.47 µg/mL (≈ 8.36 µM)	42.8 µg/mL (≈ 145 µM)	36.7 µg/mL (≈ 124 µM)	1.88 µg/mL (≈ 6.37 µM)	COc1cc(NCc2cccc(C)n2)ccc1-c1cnco1 [Compound 57, N-(6-methylpyridin-2-ylmethyl)-3-methoxy-4-(oxazol-5-yl) aniline]			45.1%
1.43 µg/mL (≈ 4.74 µM)	53.3 µg/mL (≈ 177 µM)	29.5 µg/mL (≈ 97.8 µM)	3.18 µg/mL (≈ 10.6 µM)	COc1cc(NCc2scnc2C)ccc1-c1cnco1 [Compound 54, N-(4-methylthiazol-5-ylmethyl)-3-methoxy-4-(oxazol-5-yl) aniline]			
5.75 µg/mL (≈ 20.4 µM)			4.28 µg/mL (≈ 15.2 µM)	COc1cc(NCc2ccncc2)ccc1-c1cnco1 [Compound 56, N-(pyridin-4-ylmethyl)-3-methoxy-4-(oxazol-5-yl) aniline]			37.4%
0.63 µg/mL (≈ 2.06 µM)	> 100 µg/mL	32 µg/mL (≈ 105 µM)	1.43 µg/mL (≈ 4.67 µM)	COc1cc(NC/C=C/c2ccccc2)ccc1-c1cnco1 [Compound 62]			

Continued, molecule first:

Structure (SMILES)	IC50 [3]	IC50 [1]	IC50 [2]	IC50 [4]	HepG2 IC50 [1]	A549 IC50 [2]	inhibition rate (%) 10 μg/mL (IMPDH)
N.N.[Cl][Pt][Cl] [Cisplatin, reference compound]					104.1 µg/mL	263.4 µg/mL	
COc1ccc(-c2cnco2)cc1NCc1ccc(C)s1 [Compound 22, N-(5-methylthien-2-ylmethyl)-2-methoxy-5-(oxazol-5-yl) aniline]	0.82 µg/mL (≈ 2.73 µM)	9.9 µg/mL (≈ 33 µM)	26.2 µg/mL (≈ 87.2 µM)	3.83 µg/mL (≈ 12.8 µM)			
COc1cc(/N=C/c2ccc([N+](=O)[O-])o2)ccc1-c1cnco1 [Compound 49, N-(5-nitrofuran-2-methylidene)-3-methoxy-4-(oxazol-5-yl) aniline]	0.82 µg/mL (≈ 2.62 µM)	0.897 µg/mL (≈ 2.86 µM)	4.84 µg/mL (≈ 15.4 µM)	1.53 µg/mL (≈ 4.88 µM)			
COc1cc(NCc2ccc(Br)s2)ccc1-c1cnco1 [Compound 5, N-(5-bromothien-2-ylmethyl)-3-methoxy-4-(oxazol-5-yl) aniline]	0.47 µg/mL (≈ 1.29 µM)	83.4 µg/mL (≈ 228 µM)	16.5 µg/mL (≈ 45.2 µM)	0.44 µg/mL (≈ 1.2 µM)			58.9%
COc1cc(NCc2cc3ccccc3s2)ccc1-c1cnco1 [Compound 10, N-(benzothien-2-ylmethyl)-3-methoxy-4-(oxazol-5-yl) aniline]	0.27 µg/mL (≈ 0.803 µM)	21.7 µg/mL (≈ 64.5 µM)	26.8 µg/mL (≈ 79.5 µM)	0.36 µg/mL (≈ 1.07 µM)			
COc1cc(NCc2csc3ccccc23)ccc1-c1cnco1 [Compound 20, N-(benzothien-3-ylmethyl)-3-methoxy-4-(oxazol-5-yl) aniline]	0.64 µg/mL (≈ 1.9 µM)	2.88 µg/mL (≈ 8.57 µM)	11.6 µg/mL (≈ 34.5 µM)	0.82 µg/mL (≈ 2.44 µM)			47.7%
COc1cc(NCc2cccs2)ccc1-c1cnco1 [Compound 1, N-(thien-2-ylmethyl)-3-methoxy-4-(oxazol-5-yl) aniline]	0.44 µg/mL (≈ 1.54 µM)	0.95 µg/mL (≈ 3.32 µM)		0.44 µg/mL (≈ 1.54 µM)			65.7%
CCc1ccc(CNc2ccc(-c3cnco3)c(OC)c2)s1 [Compound 3, N-(5-ethylthien-2-ylmethyl)-3-methoxy-4-(oxazol-5-yl) aniline]	0.35 µg/mL (≈ 1.11 µM)	20.9 µg/mL (≈ 66.5 µM)	10.7 µg/mL (≈ 34.2 µM)	1.43 µg/mL (≈ 4.55 µM)			
COc1cc(NCc2ccsc2)ccc1-c1cnco1 [Compound 11, N-(thien-3-ylmethyl)-3-methoxy-4-(oxazol-5-yl) aniline]	0.44 µg/mL (≈ 1.54 µM)	42.1 µg/mL (≈ 147 µM)	29.7 µg/mL (≈ 104 µM)	1.33 µg/mL (≈ 4.64 µM)			69.6%
COc1cc(NCc2ccc(-c3ccccc3)s2)ccc1-c1cnco1 [Compound 6, N-(5-phenylthien-2-ylmethyl)-3-methoxy-4-(oxazol-5-yl) aniline]	0.47 µg/mL (≈ 1.3 µM)	31.8 µg/mL (≈ 87.6 µM)	16.9 µg/mL (≈ 46.6 µM)	0.27 µg/mL (≈ 0.745 µM)			
COc1cc(NCc2ccco2)ccc1-c1cnco1 [Compound 41, N-(furan-2-ylmethyl)-3-methoxy-4-(oxazol-5-yl) aniline]	0.63 µg/mL (≈ 2.33 µM)	40 µg/mL (≈ 148 µM)	22.8 µg/mL (≈ 84.2 µM)	1.88 µg/mL (≈ 6.96 µM)			
COc1cc(NCc2ccc(C(=O)O)s2)ccc1-c1cnco1 [Compound 7, 5-(3-methoxy-4-oxazol-5-yl-anilinomethyl)-thien-2-yl carboxylic acid]	> 66.7 µg/mL	> 100 µg/mL	> 100 µg/mL	18.5 µg/mL (≈ 56 µM)			
COc1ccc(-c2cnco2)cc1NCc1cccs1 [Compound 21, N-(thien-2-ylmethyl)-2-methoxy-5-(oxazol-5-yl) aniline]	2.47 µg/mL (≈ 8.63 µM)	> 100 µg/mL	122 µg/mL (≈ 427 µM)	3.25 µg/mL (≈ 11.3 µM)			

Source: US20150031686A1, “PHENYL-OXAZOLYL DERIVATIVES, PREPARATION METHOD THEREOF, AND RELATED APPLICATION OF THE PHENYL-OXAZOLYL DERIVATIVES AS AN IMPDH INHIBITOR” (INSTITUTE OF MEDICINAL BIOTECHNOLOGY, CHINESE ACADEMY OF …, priority 2012, published 2015)
